Data from ChEMBL document CHEMBL1201862, “PubChem BioAssay data set” (2004).
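96-well plates; 48 h exposure; 5 concentrations. Endpoints by linear interpolation between flanking doses. Not reached: highest tested concentration assigned. Here, GI50 denotes the concentration required for 50% inhibition of growth.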 Activity calls are given as the source filed them. No stated cut-off is given here; in the data, active = GI50 up to about 1.1 µM and inactive = higher.

Legend:
Assay in all cases: NCI anticancer screen, dose series, 48 h
SF-539 = system: SF-539
HL-60 = system: HL-60
SN12C = system: SN12C
MDA-N = system: MDA-N
NCI/ADR-RES = system: NCI/ADR-RES
HCC 2998 = system: HCC 2998
RPMI-8226 = system: RPMI-8226
SK-OV-3 = system: SK-OV-3
DU-145 = system: DU-145
OVCAR-8 = system: OVCAR-8
CAKI-1 = system: CAKI-1
SF-295 = system: SF-295
NCI-H226 = system: NCI-H226
SK-MEL-5 = system: SK-MEL-5
UACC-257 = system: UACC-257
NCI-H522 = system: NCI-H522
BT-549 = system: BT-549
U-251 = system: U-251
MOLT-4 = system: MOLT-4
A549 = system: A549

Measured: GI50

O=C(/C=C/c1ccc(O)c(O)c1)c1ccc(O)cc1O [BUTEIN]
inactive: SF-539 11.2 µM | HL-60 3.29 µM | SN12C 14.5 µM | MDA-N 6.14 µM | NCI/ADR-RES 17.4 µM | HCC 2998 17.1 µM | RPMI-8226 10.5 µM | SK-OV-3 15.7 µM | DU-145 9.1 µM | OVCAR-8 17.9 µM | CAKI-1 10.5 µM | SF-295 22.3 µM | NCI-H226 17.3 µM | SK-MEL-5 11.6 µM | UACC-257 15.6 µM | NCI-H522 2.25 µM | BT-549 9.27 µM | U-251 9.25 µM | MOLT-4 7.64 µM | A549 25 µM

Cn1cc(NC(=O)c2cc(NC(=O)CNC(=N)N)cn2C)cc1C(=O)NCCC(=N)N [NETROPSIN CHLORIDE]
inactive: SF-539 > 100 µM | HL-60 > 100 µM | SN12C > 100 µM | MDA-N > 100 µM | NCI/ADR-RES > 100 µM | HCC 2998 > 100 µM | RPMI-8226 > 100 µM | SK-OV-3 > 100 µM | DU-145 > 100 µM | OVCAR-8 > 100 µM | CAKI-1 > 100 µM | SF-295 > 100 µM | NCI-H226 > 100 µM | SK-MEL-5 > 100 µM | UACC-257 > 100 µM | NCI-H522 > 100 µM | BT-549 > 100 µM | U-251 > 100 µM | MOLT-4 > 100 µM | A549 > 100 µM
